Data taken from US7425577B2, “Lipase-colipase inhibitor” (Forskarpatent 1 SYD AB, priority 2003, dated 2008).
One block for each molecule: values may come before it.

Molecular target: T1, Lipase and colipase, purified from human pancreatic gland (Homo sapiens, UniProt P04118+P16233)
T1 construct: Lipase, Purified from Human Pancreatic Gland; Colipase, Purified from Human Pancreatic Gland; from tissue; host or cells: human pancreatic gland
T1 sequence (P16233 17-465): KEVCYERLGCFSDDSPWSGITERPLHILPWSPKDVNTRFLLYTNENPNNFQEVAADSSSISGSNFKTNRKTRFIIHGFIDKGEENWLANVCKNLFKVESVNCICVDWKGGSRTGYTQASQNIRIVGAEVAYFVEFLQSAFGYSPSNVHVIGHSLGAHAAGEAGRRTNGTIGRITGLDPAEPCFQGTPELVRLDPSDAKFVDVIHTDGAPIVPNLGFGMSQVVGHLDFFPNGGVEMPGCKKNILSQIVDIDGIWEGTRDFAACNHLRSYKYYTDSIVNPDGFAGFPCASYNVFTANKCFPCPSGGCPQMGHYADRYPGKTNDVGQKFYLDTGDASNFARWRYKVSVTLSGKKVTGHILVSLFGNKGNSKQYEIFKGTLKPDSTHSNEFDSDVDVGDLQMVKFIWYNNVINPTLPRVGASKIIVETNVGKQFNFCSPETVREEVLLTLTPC
T1 sequence (P04118 23-112): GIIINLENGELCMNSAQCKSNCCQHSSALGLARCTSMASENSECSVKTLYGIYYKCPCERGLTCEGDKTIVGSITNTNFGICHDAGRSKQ
Assay: Determination of lipolysis by colipase/lipase (pH-stat, tributyrine emulsion with NaTDC)
Type: biochemical
Description: Determination of Lipolysis by Colipase/Lipase
The most important enzyme in the gastro-intestinal tract being responsible for the hydrolysis of lipids/fats in the gastro-intestinal tract is lipase, pancreatic lipase, together with its protein cofactor colipase. These are two proteins, which are secreted from the pancreatic gland. […] The colipase binds to lipase in a molar 1:1 complex and then moves the complex to the triglyceride surface. In the binding between lipase and colipase hydrogen bonds are present, between arg38 of the colipase and ser343 of the lipase and from glu15 of the colipase and the asn241 of the lipase molecules. In the binding of colipase to the substrate (the lipids/fat) there are both hydrophobic bonds as well as ion-ion bonds present. By an isolated lack of colipase it has been shown that colipase has a decisive role for the lipolysis in the gastro-intestinal tract of humans. Pure lipase and colipase have been produced in accordance with the following.
Lipase, Purified from Human Pancreatic Gland
Colipase, Purified from Human Pancreatic Gland
0.5 ml of tributyrine is mixed with 15 ml of a buffer containing 1 mM CaCl2, 150 mM NaCl, 2 mM tris-maleate, pH 7.0 and 4 mM NaTDC (sodium taurodeoxycholate). An emulsion is obtained by continuous stirring. pH is titrated by means of a pH-state, where 0.1 N NaOH is added automatically to keep an constant pH. 10 μl of lipase is added from a stock solution containing 70 units of lipase/ml, followed by 10 μl of colipase from a stock solution containing 1 mg colipase/ml. An activity is registered which is determined to be 100%. An addition of an inhibitor is then made. A new assay is used for every concentration, prepared in the same way. The inhibition is registered as percentage of control. A dose-response plot is obtained for the compounds having an inhibiting ability.

Structure (SMILES): CCCCCCCCCCCCOCCOCCOCCOCCOCCOCCN(C)C [dimethylaminoethyl pentaethyleneglycol dodecyl ether]
Activity Inhibitor (amount of inhibitor 0.26 μmol, control activity 0.307): 0.273 µmol/min
Activity Inhibitor (amount of inhibitor 0.52 μmol, control activity 0.29): 0.236 µmol/min
Activity Inhibitor (amount of inhibitor 1.05 μmol, control activity 0.302): 0.222 µmol/min
Activity Inhibitor (amount of inhibitor 2.62 μmol, control activity 0.299): 0.13 µmol/min
Activity Inhibitor (amount of inhibitor 5.23 μmol, control activity 0.314): 0.083 µmol/min
Activity Inhibitor (amount of inhibitor 7.85 μmol, control activity 0.312): 0.04 µmol/min
Activity Inhibitor (amount of inhibitor 10.46 μmol, control activity 0.3): 0.015 µmol/min
Activity Inhibitor (amount of inhibitor 15.69 μmol, control activity 0.319): 0.009 µmol/min
Activity Inhibitor (amount of inhibitor 20.92 μmol, control activity 0.282): 0 µmol/min

Activity Inhibitor (amount of inhibitor 1.04 μmol, control activity 0.226): 0.179 µmol/min
Activity Inhibitor (amount of inhibitor 2.07 μmol, control activity 0.243): 0.121 µmol/min
Activity Inhibitor (amount of inhibitor 4.14 μmol, control activity 0.223): 0.056 µmol/min
Activity Inhibitor (amount of inhibitor 7.25 μmol, control activity 0.257): 0.045 µmol/min
Activity Inhibitor (amount of inhibitor 10.35 μmol, control activity 0.282): 0.033 µmol/min
Activity Inhibitor (amount of inhibitor 15.53 μmol, control activity 0.256): 0 µmol/min
Structure (SMILES): CCCCCCCCCCCCCCN(C)C [N,N-dimethyl tetradecyl amine]

Activity Inhibitor (amount of inhibitor 2.49 μmol, control activity 0.304): 0.249 µmol/min
Activity Inhibitor (amount of inhibitor 4.98 μmol, control activity 0.319): 0.215 µmol/min
Activity Inhibitor (amount of inhibitor 8.71 μmol, control activity 0.314): 0.136 µmol/min
Activity Inhibitor (amount of inhibitor 12.44 μmol, control activity 0.356): 0.069 µmol/min
Activity Inhibitor (amount of inhibitor 18.66 μmol, control activity 0.32): 0.053 µmol/min
Activity Inhibitor (amount of inhibitor 21.89 μmol, control activity 0.293): 0.035 µmol/min
Activity Inhibitor (amount of inhibitor 24.88 μmol, control activity 0.278): 0 µmol/min
Structure (SMILES): CCCCCCCCOCCN(C)C [dimethylaminoethyl octyl ether]

Structure (SMILES): CCCCCCCCCCCCOCCOCCOCCOCCOCCOCCOCCOCCOCCN(CCC)CCC [dipropylaminoethyl octaethyleneglycol dodecyl ether]
Activity Inhibitor (amount of inhibitor 0.2 μmol, control activity 0.256): 0.256 µmol/min
Activity Inhibitor (amount of inhibitor 0.4 μmol, control activity 0.28): 0.256 µmol/min
Activity Inhibitor (amount of inhibitor 0.8 μmol, control activity 0.259): 0.209 µmol/min
Activity Inhibitor (amount of inhibitor 2.01 μmol, control activity 0.25): 0.136 µmol/min
Activity Inhibitor (amount of inhibitor 4.02 μmol, control activity 0.246): 0.096 µmol/min
Activity Inhibitor (amount of inhibitor 8.04 μmol, control activity 0.244): 0.033 µmol/min
Activity Inhibitor (amount of inhibitor 12.06 μmol, control activity 0.252): 0.011 µmol/min
Activity Inhibitor (amount of inhibitor 16.08 μmol, control activity 0.247): 0 µmol/min
